From patent publication US10670605B2, “Cysteine reactive probes and uses thereof” (The Scripps Research Institute, priority 2015, dated 2020)

Legend:
Assay in all cases: Competitive isoTOP-ABPP in situ (fragment-treated cells)
Type in all cases: cell-based
[1] = target: T1, cysteines in MDA-MB-231 and Ramos cells (Homo sapiens, UniProt O15294)
T1 sequence (O15294 1-1046): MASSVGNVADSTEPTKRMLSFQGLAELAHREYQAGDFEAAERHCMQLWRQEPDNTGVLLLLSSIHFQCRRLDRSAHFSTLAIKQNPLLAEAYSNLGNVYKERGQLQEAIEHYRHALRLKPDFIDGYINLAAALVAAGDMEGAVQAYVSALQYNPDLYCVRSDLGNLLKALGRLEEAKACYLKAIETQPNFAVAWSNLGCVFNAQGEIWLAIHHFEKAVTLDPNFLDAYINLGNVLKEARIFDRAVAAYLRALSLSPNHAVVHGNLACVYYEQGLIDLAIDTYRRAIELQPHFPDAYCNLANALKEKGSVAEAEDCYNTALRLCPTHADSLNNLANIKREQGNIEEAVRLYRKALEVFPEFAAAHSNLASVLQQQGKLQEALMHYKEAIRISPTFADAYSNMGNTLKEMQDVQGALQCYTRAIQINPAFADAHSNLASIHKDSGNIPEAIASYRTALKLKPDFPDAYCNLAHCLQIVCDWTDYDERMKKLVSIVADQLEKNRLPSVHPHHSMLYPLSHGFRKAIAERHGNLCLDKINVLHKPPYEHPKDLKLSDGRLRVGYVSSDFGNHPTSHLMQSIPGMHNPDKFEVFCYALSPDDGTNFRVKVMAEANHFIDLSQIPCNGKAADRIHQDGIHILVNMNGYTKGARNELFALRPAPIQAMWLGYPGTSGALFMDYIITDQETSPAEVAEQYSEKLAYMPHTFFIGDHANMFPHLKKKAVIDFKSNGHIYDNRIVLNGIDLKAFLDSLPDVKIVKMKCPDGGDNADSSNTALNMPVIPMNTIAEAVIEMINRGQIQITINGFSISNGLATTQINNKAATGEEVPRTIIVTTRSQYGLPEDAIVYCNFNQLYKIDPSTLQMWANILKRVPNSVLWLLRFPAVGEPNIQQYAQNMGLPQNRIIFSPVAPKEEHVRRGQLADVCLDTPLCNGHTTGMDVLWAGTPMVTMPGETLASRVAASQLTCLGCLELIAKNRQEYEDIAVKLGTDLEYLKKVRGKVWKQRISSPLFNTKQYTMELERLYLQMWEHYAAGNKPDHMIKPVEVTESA

[2] = target: T2, cysteines in MDA-MB-231 and Ramos cells (Homo sapiens, UniProt Q96RN5)
T2 sequence (Q96RN5 1-788): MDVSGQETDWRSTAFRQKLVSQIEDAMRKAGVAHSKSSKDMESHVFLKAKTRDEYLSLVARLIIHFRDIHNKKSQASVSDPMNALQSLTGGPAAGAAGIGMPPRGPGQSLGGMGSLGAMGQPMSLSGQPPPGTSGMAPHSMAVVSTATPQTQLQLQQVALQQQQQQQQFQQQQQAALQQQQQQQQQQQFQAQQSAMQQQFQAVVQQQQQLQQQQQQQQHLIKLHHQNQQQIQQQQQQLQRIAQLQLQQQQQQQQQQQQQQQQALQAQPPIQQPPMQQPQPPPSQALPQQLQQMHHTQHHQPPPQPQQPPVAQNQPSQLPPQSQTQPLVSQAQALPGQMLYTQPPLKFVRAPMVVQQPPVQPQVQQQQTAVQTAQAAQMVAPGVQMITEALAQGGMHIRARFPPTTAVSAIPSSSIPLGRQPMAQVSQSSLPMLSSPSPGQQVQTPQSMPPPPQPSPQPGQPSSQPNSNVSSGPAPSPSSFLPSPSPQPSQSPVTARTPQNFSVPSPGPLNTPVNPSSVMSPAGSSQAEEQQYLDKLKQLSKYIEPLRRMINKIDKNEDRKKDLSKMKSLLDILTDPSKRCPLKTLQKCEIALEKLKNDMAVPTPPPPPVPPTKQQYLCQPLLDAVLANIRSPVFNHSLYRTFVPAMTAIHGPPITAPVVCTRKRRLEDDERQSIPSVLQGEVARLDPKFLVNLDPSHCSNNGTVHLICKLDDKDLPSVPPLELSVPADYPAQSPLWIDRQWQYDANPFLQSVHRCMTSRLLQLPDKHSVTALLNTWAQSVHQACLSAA

[3] = target: T3, cysteines in MDA-MB-231 and Ramos cells (Homo sapiens, UniProt Q9HAV7)
T3 sequence (Q9HAV7 28-217): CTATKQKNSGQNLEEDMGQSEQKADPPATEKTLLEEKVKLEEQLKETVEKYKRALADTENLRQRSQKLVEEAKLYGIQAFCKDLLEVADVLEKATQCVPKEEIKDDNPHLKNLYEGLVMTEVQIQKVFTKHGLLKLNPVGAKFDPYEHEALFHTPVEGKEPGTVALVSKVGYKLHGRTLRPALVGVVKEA

[4] = target: T4, cysteines in MDA-MB-231 and Ramos cells (Homo sapiens, UniProt Q9HCC0)
T4 sequence (Q9HCC0 23-563): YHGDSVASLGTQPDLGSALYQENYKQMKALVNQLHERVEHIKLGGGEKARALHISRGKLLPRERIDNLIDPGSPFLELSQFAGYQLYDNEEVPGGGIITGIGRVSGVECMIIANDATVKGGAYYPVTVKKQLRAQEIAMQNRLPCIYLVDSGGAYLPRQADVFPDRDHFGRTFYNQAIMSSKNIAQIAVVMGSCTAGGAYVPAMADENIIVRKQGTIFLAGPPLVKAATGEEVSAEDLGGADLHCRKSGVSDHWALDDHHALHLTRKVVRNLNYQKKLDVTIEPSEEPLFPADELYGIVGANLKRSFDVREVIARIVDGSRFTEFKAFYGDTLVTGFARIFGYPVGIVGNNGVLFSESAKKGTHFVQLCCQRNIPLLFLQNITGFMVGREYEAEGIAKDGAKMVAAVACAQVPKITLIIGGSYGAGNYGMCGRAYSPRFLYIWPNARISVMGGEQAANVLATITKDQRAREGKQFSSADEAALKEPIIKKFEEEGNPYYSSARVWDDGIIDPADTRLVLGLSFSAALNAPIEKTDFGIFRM

[5] = target: cysteines in MDA-MB-231 and Ramos cells (Homo sapiens, UniProt Q9NYL2)
cysteines in MDA-MB-231 and Ramos cells (Homo sapiens, UniProt Q9NYL2), sequence (Q9NYL2 whole entry): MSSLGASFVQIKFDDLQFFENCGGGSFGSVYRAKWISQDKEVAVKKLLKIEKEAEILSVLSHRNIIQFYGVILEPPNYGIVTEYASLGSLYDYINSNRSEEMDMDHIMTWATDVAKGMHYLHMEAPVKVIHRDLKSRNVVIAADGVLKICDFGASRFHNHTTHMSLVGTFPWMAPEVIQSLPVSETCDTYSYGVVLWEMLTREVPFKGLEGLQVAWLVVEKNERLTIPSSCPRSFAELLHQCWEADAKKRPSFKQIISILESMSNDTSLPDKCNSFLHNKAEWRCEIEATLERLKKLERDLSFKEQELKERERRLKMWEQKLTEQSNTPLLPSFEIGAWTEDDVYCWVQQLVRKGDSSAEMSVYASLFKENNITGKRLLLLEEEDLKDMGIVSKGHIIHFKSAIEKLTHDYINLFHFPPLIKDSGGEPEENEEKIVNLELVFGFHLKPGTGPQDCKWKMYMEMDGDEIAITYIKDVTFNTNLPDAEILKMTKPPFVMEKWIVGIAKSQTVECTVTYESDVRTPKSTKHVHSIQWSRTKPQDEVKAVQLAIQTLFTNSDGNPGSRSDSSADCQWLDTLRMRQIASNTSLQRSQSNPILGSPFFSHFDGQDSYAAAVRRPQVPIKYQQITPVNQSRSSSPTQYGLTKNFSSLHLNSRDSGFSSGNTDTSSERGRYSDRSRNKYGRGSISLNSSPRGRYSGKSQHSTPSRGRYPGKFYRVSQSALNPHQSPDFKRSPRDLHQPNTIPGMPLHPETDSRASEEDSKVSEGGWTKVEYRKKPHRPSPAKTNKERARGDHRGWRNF

isoTOP-ABPP ratio O15294_C758 ([1]; 200 μM, insitu, 231)	isoTOP-ABPP ratio Q96RN5_C618 ([2]; 200 μM, insitu, 231)	isoTOP-ABPP ratio Q9HAV7_C124 ([3]; 200 μM, insitu, 231)	isoTOP-ABPP ratio Q9NYL2_C22 ([5]; 200 μM, insitu, 231)	SMILES	isoTOP-ABPP ratio Q9HCC0_C216 ([4]; 200 μM, insitu, 231)	other results
–	–	–	–	COc1ccc2c(c1)CCCN2C(=O)CCl [compound 2]	–	isoTOP-ABPP reactivity 015294_C758 OGT ([1]; 200 μM, insitu, 231): 2.6; isoTOP-ABPP reactivity O96RN5_C618 MED15 ([2]; 200 μM, insitu, 231): 6.4; isoTOP-ABPP reactivity Q9HAV7_C124 GRPEL1 ([3]; 200 μM, insitu, 231): 3.2; isoTOP-ABPP reactivity Q9HCC0_C216 MCCC2 ([4]; 200 μM, insitu, 231): 4.6; isoTOP-ABPP reactivity Q9NYL2_C22 MUTK Mitogen-activated protein kinase MLTK ([5]; 200 μM, insitu, 231): 5.5
1.0	0.8	0.6	0.7	CC(C)CCOCCNC(=O)CCl [compound 27]	1.0	–
20.0	20.0	1.1	0.7	O=C(CCl)NC(=O)NC12CC3CC(CC(C3)C1)C2 [compound 12]	20.0	–
1.1	1.0	1.7	–	O=C(CCl)NC12CC3CC(CC(C3)C1)C2 [compound 21]	2.2	–
2.3	–	1.0	1.2	O=C(CCl)N1CCN(S(=O)(=O)c2ccccc2F)CC1 [compound 10]	2.3	isoTOP-ABPP ratio, cysteine O15294_C620 ([1]; 200 μM, insitu, ramos): 12 .0
0.9	–	0.6	0.6	Cc1ccc(C=C(C#N)C(=O)NCCN2CCOCC2)cc1 [compound 41]	1.0	isoTOP-ABPP ratio O15294_C620 ([1]; 200 μM, insitu, 231): 1.0
–	–	–	–	Cn1cc(S(=O)(=O)N2CCOCC2)cc1C(=O)NC(=O)CCl [compound 11]	–	isoTOP-ABPP ratio O15294_C758 ([1]; 100 μM in situ 231): 1.0; isoTOP-ABPP ratio Q96RN5_C618 ([2]; 100 μM in situ 231): 1.0; isoTOP-ABPP ratio Q9HAV7_C124 ([3]; 100 μM in situ 231): 0.9; isoTOP-ABPP ratio Q9HCC0_C216 ([4]; 100 μM in situ 231): 1.9; isoTOP-ABPP ratio Q9NYL2_C22 ([5]; 100 μM in situ 231): 0.7
1.0	0.7	–	–	COc1ccccc1OCCNC(=O)CCl [compound 28]	–	–
2.9	20.0	2.1	2.3	CC1CCc2ccccc2N1C(=O)CCl (centres unmarked) [compound 45]	7.0	–
1.1	2.1	–	–	O=C(CCl)Nc1cccc2ncccc12 [compound 51]	0.9	–
–	1.4	1.0	–	C=CC(=O)Nc1cc(F)c(N2CCN(C(=O)OC(C)(C)C)CC2)c(F)c1 [compound 38]	–	–
–	–	–	–	COc1cc2c(cc1OC)CN(C(=O)CCl)CC2 [compound 8]	–	isoTOP-ABPP reactivity 015294_C758 OGT ([1]; 200 μM, insitu, 231): 2.4; isoTOP-ABPP reactivity O96RN5_C618 MED15 ([2]; 200 μM, insitu, 231): 20.0; isoTOP-ABPP reactivity Q9HAV7_C124 GRPEL1 ([3]; 200 μM, insitu, 231): 2.2; isoTOP-ABPP reactivity Q9HCC0_C216 MCCC2 ([4]; 200 μM, insitu, 231): 3.9; isoTOP-ABPP reactivity Q9NYL2_C22 MUTK Mitogen-activated protein kinase MLTK ([5]; 200 μM, insitu, 231): 1.4
–	0.9	–	–	C=CC(=O)N(Cc1cccnc1)c1cc(C(F)(F)F)cc(C(F)(F)F)c1 [compound 31]	–	isoTOP-ABPP ratio O15294_C620 ([1]; 200 μM, insitu, 231): 1.1
1.0	1.0	–	1.3	O=C(CCl)NCCc1c[nH]c2ccccc12 [compound 13]	–	isoTOP-ABPP ratio Q96RN5_C618 ([2]; 200 μM, insitu, ramos): 1.4; isoTOP-ABPP ratio Q9HCC0_C216 ([4]; 200 μM, insitu, ramos): 1.8
–	–	–	–	O=C(CCl)N1CCC(Cc2ccccc2)CC1 [compound 9]	–	isoTOP-ABPP reactivity 015294_C758 OGT ([1]; 200 μM, insitu, 231): 2.1; isoTOP-ABPP reactivity Q9HAV7_C124 GRPEL1 ([3]; 200 μM, insitu, 231): 4.7; isoTOP-ABPP reactivity Q9NYL2_C22 MUTK Mitogen-activated protein kinase MLTK ([5]; 200 μM, insitu, 231): 10.3
–	–	–	–	COc1ccc(C2CC(c3cccs3)=NN2C(=O)CCl)cc1 (centres unmarked) [compound 4]	–	isoTOP-ABPP reactivity 015294_C758 OGT ([1]; 100 μM in situ 231): 6.4; isoTOP-ABPP reactivity O15294_C620 OGT ([1]; 100 μM in situ 231): 20.0; isoTOP-ABPP reactivity O96RN5_C618 MED15 ([2]; 100 μM in situ 231): 4.5; isoTOP-ABPP reactivity Q9HAV7_C124 GRPEL1 ([3]; 100 μM in situ 231): 1.7; isoTOP-ABPP reactivity Q9HCC0_C216 MCCC2 ([4]; 100 μM in situ 231): 5.9; isoTOP-ABPP reactivity Q9NYL2_C22 MUTK Mitogen-activated protein kinase MLTK ([5]; 100 μM in situ 231): 20.0
–	–	–	–	O=C(CCl)N1CCN(CC(=O)N2CCOCC2)CC1 [compound 29]	–	isoTOP-ABPP ratio O15294_C620 ([1]; 200 μM, insitu, ramos): 2.6; isoTOP-ABPP ratio Q96RN5_C618 ([2]; 200 μM, insitu, ramos): 1.3; isoTOP-ABPP ratio Q9HAV7_C124 ([3]; 200 μM, insitu, ramos): 1.0; isoTOP-ABPP ratio Q9NYL2_C22 ([5]; 200 μM, insitu, ramos): 1.2
